Test results reported in patent publication US20070026090A1, “Treatment and prevention of inflammatory disease and mitochondrial dysfunction with high dose selenium” (priority 2003, published 2007).

Experiments:
Type in all cases: cell-based, murine
[1] = system: J774.2 macrophages; test: Intracellular ROS (H2O2) production, DCF fluorescence
Method: (§1) Cell culture: Murine J774.2 macrophages (kindly provided by Prof. Dov Zipori from the Weizmann Institute of Science) were grown in RPMI medium supplemented with 10% (w/v) fetal calf serum, penicillin (100 U/ml), streptomycin (100 μg/ml) and 1× glutamine at 37° C. in a humidified atmosphere consisting of 95% air and 5% CO2. Experiments were performed on cells at 60% confluence.
Intracellular Radical Oxygen Species (ROS) (H2O2): Intracellular ROS were detected using dihydrodichlorofluorescein (H2DCF-DA). Cells exposed to different treatments were washed three times with PBS. Cells were centrifuged (2000 RPM, 5 min), resuspended in PBS and incubated with 25 μM H2DCF-DA for 30 min at 37° C. To detect intracellular fluorescence, the fluorochrome-loaded cells were excited using a 488-nm argon-ion laser in a flow cytometer. The dichlorofluorescein (DCF) emission was recorded at 530 nm. Data were collected from at least 10,000 cells. Alternatively, DCF fluorescence was recorded using a microfluorometer plate reader (GENios, Tecan, Austria). Cells were washed twice with PBS, then 25 μM H2DCF-DA was added and cells incubated for 30 min at 37° C. Following an additional wash, cells were lysed with PBS-0.2% Triton-X 100. Total fluorescence was recorded and calibrated according to protein content.

[2] = system: MnSOD; test: MnSOD transcription and expression (RTPCR, Western blot)
Method: as §1
Western blots (Sp1, MnSOD, UCP2): Cells were grown in six-well tissue culture plates, treated with selenium for 72 h and activated with LPS and IFN-γ for 24 h. The wells were washed with PBS, scraped and centrifuged
(5 min. 2000 RPM), and lysed by addition of boiling hot lysis buffer (1% SDS, 1 mM sodium ortho-vanadate, 10 mM Tris pH 7.4) to the pellets. Protein content was measured (BIO RAD protein assay kit) and equalized. Sample buffer (containg SDS) was added and the samples were boiled. The samples were subjected to SDS-PAGE followed by western blot analysis. Separated proteins were transferred electrophoretically from the gel to a nitrocellulose membrane (Amersham International plc, Buckinghamshire, ENGLAND). The membrane was blocked in TBS (0.15 M NaCl/10 mM Tris/HCl, pH7.4) containing 5% (v/v) skimmed milk (Blotto), then incubated over night with primary antibodies at RT (diluted 1/2000 in blotto). After being washed six times in TBST [TBS containing 0.05% (v/v) Tween 20], the membrane was incubated for 2 h at room temperature with secondary antibody (diluted 1/5000 in blotto). Immunoreactive bands were detected with ECL western blotting detection reagents (Amersham Pharmacia Biotech, Buckingammshire England) and developed on film (Fuji super RX, Dusseldorf, Germany). […]
Right (antisense) 5′[…]-3′ (SEQ ID NO: 6) corresponding to nucleotides 622 to 640 of mouse mRNA region (GenBank Accession No. NM 013671). […] Actual PCR product was approximately 570 bp, measured on 1.25% agarose gel in TAE containing ethidium bromide.
PCR was performed with 28 cycles (25 cycles for GAPDH) of 30 seconds at 96° C., 30 seconds at 58° C. and 1 min at 72° C. RTPCR products were analyzed on 1.3% (w/v) agarose gels.

[3] = system: NF-κB; test: NF-κB binding activity of nuclear extracts of treated macrophages (EMSA)
Method: as §1
Nuclear extracts: Nuclear Extracts were prepared using a slight modification of the method of Dignam et al (23). Treated cells were washed with cold PBS, scraped and centrifuged. Hypotonic buffer (1 ml, 20 mM HEPES pH 7.0, 10 mM KCl, 1 mM mGCl2, 0.5 mM DTT, 0.1% Triton X-100, 20% glycerol, 2 mM PMSP, 1 mg/ml Aprotonin and Leupeptin) was added to the cell pellets, the pellets were disrupted by pipetting, and centrifuged 3000 RPM for 5 min. The pellets were re-suspended in 100 μl cold extraction buffer (20 mM HEPES pH 7.0, 10 mM KCl, 1 mM mGCl2, 0.5 mM DTT, 0.1% Triton X-100, 20% glycerol, 2 mM PMSF, 1 mg/ml Aprotonin and Leupeptin, 420 mM NaCl). The samples were rotated for 20 min at 4° C., centrifuged 15,000 RPM for 10 min, and supernatants collected. Protein content was measured using Bradford reagent. Samples were stored frozen at minus 70° C.
Electromobility shift assay (EMSA)—Gel shift assays were performed according to the gel shift assay protocol from Promega Corp. (San Luis Obispo, Calif.). A 22-mer double-stranded NF-κB consensus oligonucleotide 5′-[…]-3′ (SEQ ID NO:3), and Sp1 consensus oligonucleotide 5′-[…]-3(SEQ ID NO:4), were labeled with 32P. For each reaction, 2 μg of nuclear extract were incubated with 2 μl of 5× binding buffer for 5 min., 1 μl of the ^32P-labeled oligonucleotide was added at room temperature for 20 min., the samples were prepared by adding 1 μl of dye free loading buffer, and separated using 6% non-denaturing acrylamide gel electrophoresis. The gel was dried and exposed to a phosphoimaging screen for 18 hours and then visualized with a phosphoimager. For specificity, 1 μl of unlabeled consensus oligonucleotide was used to compete with the labeled probe.

SMILES: [Se] [selenium]
- ROS (H2O2) production over the concentration range ([1]; 0.5-30 μM, resting J774.2 (FIG. 8A)): reduced ROS production in a dose-dependent manner
- ROS production in activated macrophages ([1]; LPS 10 ng/ml + INFγ 50 units/ml 24 h, then 10 μM (FIG. 16A)): reduces
- decrease in peroxide production (DCF fluorescence) ([1]; at 30 μM, resting J774.2 (FIG. 8A)): > 30%
- lowest concentration effective in significantly reducing MnSOD transcripts and protein ([2]; 24 and 72 hours, resting J774.2 (FIG. 9A, 9B)): 0.5 µM
- MnSOD expression, activated macrophages ([2]; exposure (72 hours) prior to activation, concentration dependent (FIG. 11)): decreased
- NF-κB translocation, resting unactivated macrophages ([3]; 0.5-5 μM, 72 hours (FIG. 12A)): no effect
- lowest concentration with dramatic effect on NF-κB translocation, activated macrophages ([3]; 72 hours, then 6 hours LPS + INFγ, range 0.5-5 μM (FIG. 12A)): 0.5 µM
- nuclear import of NF-κB, activated macrophages ([3]; concentration-dependent (FIG. 12A)): dramatically reduced
